Reference: PubChem BioAssay AID179 (DTP/NCI, 2004)
pEC50, pIC50: −log10 of the molar value. Activity calls are given as the source filed them.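 Rule for the calls: active = compounds giving half or more protection of infected cells from virus-caused growth loss, again on retest; inactive = the rest.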 Where a SMILES comes first, the peptide text is derived from it. Bridges are numbered along the chain shown (N, C = ends). Roman numbers before positions name the chains, in order. [ ]: non-standard residue; d: D form. The star is where a group is joined. ξ: configuration not given here. Cbz = O=C(OCc1ccccc1)*; ξD = NC(CC(=O)O)C(=O)O; Boc = CC(C)(C)OC(=O)*; Aib = CC(C)(N)C(=O)O; OBn = c1ccc(CO*)cc1; NHNH2 = NN*

Test system: CEM cells HIV-1 protection, formazan growth assay
Experiment: NCI AIDS Antiviral Assay
Conditions: for pIC50: measured here: growth of uninfected CEM cells
Method in brief: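 Steps: treat uninfected and HIV-1-infected human CEM cells at five drug levels; quantify growth by soluble formazan; retest any compound reaching 50% protection; classify actives from the retest.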

SMILES	pEC50	pIC50	outcome
CC(Oc1ccccc1)C(=O)NNC(=O)OC(C)(C)C (stereo not drawn)	< 3.70	< 3.70	–
O=C1c2ccccc2-c2nnsc21	< 3.72	3.85	–
O=C(O)CCN1CCN(CCC(=O)O)CCN(CCC(=O)O)CC1	< 3.70	4.74	–
CC1=CO[C@@H]2O[C@@]3(C)CC[C@H]4[C@H](C)CC[C@@H]1[C@@]24O3	< 3.70	< 3.70	–
C=C1CCC(CC[C@@H]2CC[C@]3(OC2)O[C@@]2(O)CC[C@]3(C)OC2(C)C)C(C)(C)[C@H]1C/C=C1/C(=O)OC[C@@H]1O (stereo partly drawn)	–	–	inactive
CC(C)(C)OC(=O)NC(CC(=O)OCc1ccccc1)C(=O)NC(C)(C)C(N)=O (stereo not drawn) (Boc-[ξD](OBn)-[Aib]-NH2)	< 3.70	< 3.70	–
O=C1CC2c3c(OCc4ccccc4)cccc3OC2O1 (stereo not drawn)	< 4.32	< 4.32	–
C[C@]12CCCC(=O)C1C[C@H](C(=O)O)CC2 (stereo partly drawn)	–	–	inactive
COC1(OC)CC2C(=O)CCCC21OC(C)=O (stereo not drawn)	< 2.99	4.65	–
COC/N=C(\NC#N)NCOC	< 3.28	< 3.28	–
CC(=O)Oc1c(C)c2c(c3ccccc13)OC(C)(C)C2	< 3.70	4.62	–
CN1N=C(c2ccncc2)OC1c1ccc(C(F)(F)F)cc1 (stereo not drawn)	< 3.70	3.88	–
O=C(O)c1cc(Cl)cc(NC(=O)C(Cl)Cl)c1Cl	< 3.10	3.21	–
CC(C)(C)c1ccc(Br)c(CCC(=O)NO)c1	–	–	inactive
COc1cc(OC)c(/C=C/c2ccncn2)c(OC)c1	< 3.74	4.03	–
CC1(C)CN=C(Nc2cccc(C(F)(F)F)c2)S1	< 3.70	4.38	–
O=C1CC2(CCc3ccccc32)C(=O)N1CN1CCN(c2ccccn2)CC1 (stereo not drawn)	< 4.06	4.15	–
CSc1sc(=S)sc1C(=O)N(C)c1ccccc1	< 3.70	< 3.70	–
CCOP(=O)(OCC)c1ccc[nH]1	< 3.70	< 3.70	–
N#CCCC(C#N)(C#N)CCC#N	< 3.12	< 3.12	–
N#CC1(C#N)C(C#N)(C#N)C12CCCCC2	< 4.70	5.00	–
CCOc1nc(C(=O)O)cc2ccsc12	< 3.23	3.30	–

SMILES	pEC50	pIC50	outcome
CN1CCCc2nc3ccccc3n2C1	< 4.44	< 4.44	–
O=C1CSC(c2cccc(Cl)c2)N1N1C(=O)CSC1c1cccc(Cl)c1 (stereo not drawn)	< 3.70	4.18	–
O=c1n(-c2ccccc2)c(=O)n2n1C1Cc3ccccc3C12 (stereo not drawn)	–	–	inactive
Brc1ccc2c(c1)C1=C(CO2)Cc2ccccc2O1	–	–	inactive
CCOC(=O)Nc1ccc(C(=O)/C=C\c2ccc(N(CC)CC)cc2)cc1	< 3.70	5.43	–
CCOC(=O)CCC(NC(=O)OCc1ccccc1)C(=O)NC(CCC(=O)OCC)C(=O)NN (stereo not drawn) (Cbz-Glu(OEt)-Glu(OEt)-NHNH2; configuration not given here)	< 3.70	< 3.70	–
COC(=O)C(N)CSCc1ccccc1 (stereo not drawn)	< 3.16	3.23	–
CN1N=C(c2ccccc2)c2cc(Cl)ccc2N=C1N/N=C/c1ccc(N(C)C)cc1	< 3.70	< 3.70	–
O=C(O)CCSC(=S)Nc1ccc([N+](=O)[O-])cc1	–	–	inactive
CCOC(=O)c1cnc2cc3cccccc3n2c1=O	–	–	inactive
C1=NCCNCCN=Cc2ccc(cc2)OCc2cccc(n2)COc2ccc1cc2	< 4.00	< 4.00	–
CC(C)(C)C(=O)C(c1ccc(-c2cscn2)cc1)c1ccc(-c2cscn2)cc1	< 5.60	< 5.60	–
O=c1[nH]c2nncn2c2ccccc12	< 3.70	< 3.70	–
C1CC2N=C3OCCC3N=C2O1 (stereo not drawn)	< 2.82	< 2.82	–
Cc1ccc(C2CC(=O)CC(c3ccc(C)cc3)C23C(=O)NC(=O)NC3=O)cc1 (stereo not drawn)	< 4.00	4.19	–
CCOC(=O)C1(c2ccc(O)c(O)c2)CCN(C)CC1	< 3.10	3.42	–
COc1ccc(NC(=O)C(=O)Cc2nc3ccc(C(=O)c4ccccc4)cc3[nH]c2=O)c([N+](=O)[O-])c1	< 3.71	4.29	–
Cc1cn(CC2(CO)CCC2)c(=O)[nH]c1=O	< 3.70	< 3.70	–
NC(=O)c1ccc2c(c1)S(=O)(=O)c1ccccc1C2=O	< 3.70	< 3.70	–
CN1Nc2ccccc2CC1=O	< 2.81	4.26	–
Cc1cc(C)nc(NS(=O)(=O)c2ccc(Nc3c4ccccc4nc4c(C(=O)Nc5ccc(S(N)(=O)=O)cc5)cccc34)cc2)n1	< 3.84	< 3.84	–
COC(=O)C(CC1CC(=O)N(CCc2c[nH]c3ccccc23)C1)C(=O)OC (stereo not drawn)	< 3.72	< 3.72	–

SMILES	pEC50	pIC50	outcome
N#CCCN(CCCCN(CCC#N)C(=O)Nc1ccccc1)C(=O)Nc1ccccc1	< 3.70	< 3.70	–
CCNc1ncc2nc(CC(=O)OC)c(=O)n(CC)c2n1	< 3.70	< 3.70	–
CC(=O)C1C(=O)NC(=O)C1=O (stereo not drawn)	< 2.79	< 2.79	–
CCCCCCCCCCCCOP(=O)(O)OCC(N)C(=O)O (stereo not drawn)	< 3.70	4.99	–
C[Si]12OCCCN(CCO1)CCO2	–	–	inactive
O=C1C(=O)N(C(=O)c2ccc(Cl)c(Cl)c2)c2ccccc21	–	–	inactive
COc1cccc(C=O)c1[O-].COc1cccc(C=O)c1[O-].[Ni+2]	< 4.30	4.45	–
CN1C(=O)/C(=C2\SC(=O)N(Cc3nc4ccccc4[nH]3)C2=O)c2cc(Br)ccc21	< 3.70	4.89	–
Cn1cnc2nc3ncn(C)c3cc21	< 3.70	< 3.70	–
COc1ccccc1C1C(C#N)C(=O)NC(=O)C1C#N (stereo not drawn)	< 3.70	< 3.70	–
c1ccc(CN2CCCCC(Sc3ccccc3)CC2)cc1 (stereo not drawn)	< 4.36	4.46	–
CCN(CC)c1cc2oc(=O)cc(C)c2cc1NC(=O)c1cc([N+](=O)[O-])cc([N+](=O)[O-])c1	< 4.31	< 4.31	–
CC1(C)COC(c2ccccc2-c2ccccc2)=N1	< 3.70	3.88	–
CN1CCC2(CC1)OC(c1ccccc1)C(c1ccccc1)O2 (stereo not drawn)	< 3.70	3.94	–
O=S(=O)(CC#CCO)c1c2ccccc2cc2ccccc12	–	–	inactive
C=CC1(C)CCC(C(C)C(=O)C(C=C(C)C)OC(C)=O)C12C(=O)Oc1ccccc1C2=O (stereo not drawn)	< 4.51	4.53	–
O=c1c(O)c(-c2cc(O)c(O)c(O)c2)oc2cc(O)cc(O)c12	< 3.55	4.86	–
COC(=O)C1CC2C(=O)N(c3ccccc3)C(=O)C2c2c1n(C)c1ccccc21 (stereo not drawn)	< 4.49	< 4.49	–
Cc1ccc2ccc(-c3cc4ccccc4s3)nc2c1	–	–	inactive
CCCCCCCCCCCCP(=O)(O)OCC(N)C(=O)O (stereo not drawn)	< 3.70	4.08	–
O=[N+]([O-])c1ccc(N=Nc2c(NNc3ccc([N+](=O)[O-])cn3)cc(S(=O)(=O)O)c3ccccc23)nc1	–	–	inactive
O=S(=O)(OCCSS(=O)(=O)c1ccccc1)c1ccccc1	< 3.36	< 3.36	–

SMILES	pEC50	pIC50	outcome
[C-]#[N+][C@@]1(C)CCC2C(C)CC[C@@H](C(=C)C)[C@@]23C=C(C)CC[C@H]31 (stereo partly drawn)	< 3.70	3.86	–
COc1cccc(/C=N/[N-]C(=O)c2ccncc2)c1[O-].[Co+2].[OH3+]	< 4.68	< 4.68	–
CC(=O)Nc1ccc2c(c1)Cc1cc(N(CCO)CCO)ccc1-2	< 3.70	4.13	–
c1ccc([P+](Cc2ccc(C[P+](c3ccccc3)(c3ccccc3)c3ccccc3)cc2)(c2ccccc2)c2ccccc2)cc1	4.76	4.42	–
Oc1cc(O)c2c(c1)OC(c1ccc(O)c(O)c1)C(O)[C@H]2c1c(O)cc(O)c2c1OC(c1ccc(O)c(O)c1)C(O)C2 (stereo partly drawn)	< 3.70	3.96	–
O=C1CCC(=O)N1n1c(Cc2ccccc2)n[nH]c1=O	< 3.70	< 3.70	–
O=C(NNc1cn[nH]c(=O)c1Cl)/C(=C/c1ccc2c(c1)OCO2)NC(=O)c1ccccc1	< 3.70	3.79	–
NCCNCCCNC(=O)c1cc(-c2ccccc2)nc2ccccc12	< 3.70	4.27	–
CCC[CH2][Sn]([CH2]CCC)([CH2]CCC)[CH2]N1CCC(=O)C[C@@H]1C/C=C/[P@]1(=O)O[C@H](c2ccccc2)C(C)N1C(C)C (stereo partly drawn)	–	–	inactive
COc1ccc(-c2coc3c4c(c5c(c3c2=O)OC(C)(C)CC5)OC(C)(C)C=C4)cc1OC	< 4.40	4.91	–
C[N+](C)(C)CC(=O)N/N=C(\C(=O)NC1=C(Cl)C(=O)c2ccccc2C1=O)C(C#N)c1csc(-c2ccc([N+](=O)[O-])cc2)n1 (stereo not drawn)	–	–	inactive
CCOC(=O)C(Cc1ccc(O)cc1)NC(=O)C(N)CSSCC(N)C(=O)NC(Cc1ccc(O)cc1)C(=O)OCC (stereo not drawn) (I: H-Cys-Tyr-OEt / II: H-Cys-Tyr-OEt; disulfide I:1-II:1; configuration not given here)	< 3.70	< 3.70	–
O=c1[nH]c2cc([N+](=O)[O-])ccc2nc1/C(=N/Nc1ccccc1)C(O)c1ccc(C(O)/C(=N\Nc2ccccc2)c2cnc3cc([N+](=O)[O-])ccc3n2)cc1 (stereo not drawn)	< 4.31	4.77	–
O=C(/C=C(/SS/C(=C/C(=O)c1ccccc1)c1ccccc1)c1ccccc1)c1ccccc1	< 3.70	5.60	–
CCCc1cc(=O)oc2c3c(c4c(c12)OC(C)(C)C=C4)O[C@H](C)[C@@H](C)C3O (stereo partly drawn)	5.62	4.93	–
COc1ccc2c(c1)C(=O)C1NC(=O)NC(=O)C1(Br)N2 (stereo not drawn)	< 3.70	< 3.70	–
O=C1/C(=C/c2cccc(F)c2)Cc2ccccc21	< 4.52	< 4.52	–
Brc1ncnc2c1ncn2C1CCCS1 (stereo not drawn)	–	–	inactive
CC(C)(C)Sc1nnc(SC(C)(C)C)c2c(=O)[nH]nc(SC(C)(C)C)c12	–	–	inactive
C[CH2][Ge]([CH2]C)([CH2]C)[O]C(=O)C(OC(C)=O)c1ccccc1 (stereo not drawn)	< 3.60	3.71	–
O=C1N2Cc3c4ccc5c3CN3C(=O)N6Cc7c(ccc(c7CN1C6(c1ccccc1)C23c1ccccc1)OCCOCCOc1cc(Br)c(Br)cc1OCCOCCO4)OCCOCCOc1cc(Br)c(Br)cc1OCCOCCO5 (stereo not drawn)	< 6.26	< 6.26	–
